Test results as given in patent publication US6958345B2, “2-hydroxymethylcyclopropylidene methylpurines and -pyrimidines as antiviral agents” (The Regents of the University of Michigan, priority 1997, dated 2005).
Where two headings read alike, the source gives them in different places.

Assays:
[1] = tested on: murine cytomegalovirus (MCMV); assay: Mortality of mice infected with murine cytomegalovirus; assay type: in vivo; settings: 5.6 mg/kg
Procedure: (§1) Compounds 1 (B=adenin-N^9-yl and guanin-N^9-yl) were evaluated in mice infected with murine cytomegalovirus (MCMV). Mice were infected intraperitonealy with sufficient MCMV to produce 90 to 100% mortality. Compounds were administered once daily for five days at doses of 5.6, 16.7 and 50 mg/kg by intraperitoneal injection in a 0.4% suspension of carboxymethylcellulose. Ganciclovir was administered in sterile water at the same doses as a positive control drug. All compounds were administered to separate groups of 15 mice each at 6, 24, and 48 hours after infection with MCMV. Groups of 10 uninfected mice also received test compounds as toxicity controls at the doses listed above.

HCMV [2] = assay: HCMV plaque reduction assay in HFF cells; assay type: cell-based, Human CMV (HCMV); settings: HFF cells; plaque reduction
Procedure: (§2) Cells and viruses. The routine growth and passage of KB cells was performed in monolayer cultures using minimal essential medium (MEM) with either Hanks salts [MEM(H)] or Earle salts [MEM(E)] supplemented with 10% calf serum. The sodium bicarbonate concentration was varied to meet the buffering capacity required. Cultures of diploid human foreskin fibroblasts (HFF) or MRC-5 cells were grown in medium consisting of MEM(E) with 10% fetal bovine serum. Cells were passaged at 1:2 to 1:10 dilutions according to conventional procedures by using 0.05% trypsin plus 0.02% EDTA in a HEPES buffered salt solution (HBS) (Shipman, C., Jr., Proc. Soc. Exp. Biol. 130:305-310 (1969)) as described previously. Turk, S. R., et al., Antimicrob. Agents Chemother. 31:544-550 (1987). HFF and MRC-5 cells were passaged only at 1:2 dilutions. CEM cells were maintained in suspension culture as detailed previously. Kucera, L. S., et al., AIDS Res. Human Retroviruses 9:307-314 (1993).
(§3) Virological procedures. Stock HCMV was prepared by infecting HFF cells at a multiplicity of infection (m.o.i.) of <0.01 plaque-forming units (p.f.u.) per cell. Cell growth medium was changed every four days until cytopathology was evident in all cells (approximately 21 days). Supernatant fluids were retained as the virus stock. High titer HSV-1 stocks were prepared by infecting KB cells at an m.o.i. of <0.1 as detailed previously. Turk, S. R., et al., Antimicrob. Agents Chemother. 31:544-550 (1987). Virus titers were determined using monolayer cultures of HFF cells for HCMV and monolayer cultures of BSC-1 cells for HSV-1 as described earlier. Prichard, M. N., et al., J. Virol. Methods 28:101-106 (1990). Briefly, HFF or BSC-1 cells were planted as described above in 96-well cluster dishes and incubated overnight at 37° C. in a humidified 3% CO297% air atmosphere. The next day cultures were inoculated with HCMV or HSV-1 and serially diluted 1:3 across the remaining eleven columns of the 96-well plate. Cultures were incubated at 37° C. for 2 hr to permit virus adsorption and then virus inoculum was replaced with 0.2 mL of fresh medium. Cultures were incubated for seven days for HCMV, two or three days for HSV-1, medium was removed, and the cell sheets were stained with 0.1% crystal violet in 20% methanol. Plaques were enumerated under 20-fold magnification in wells having the dilution which gave 5 to 20 plaques per well. Virus titers were calculated according to the following Formula: Titer (p.f.u./mL)=number of plaques×5×3^n; where n represents the nth dilution of the virus used to infect the well in which plaques were enumerated.
(a) HCMV. The effect of compounds on the replication of HCMV has been measured using a plaque reduction assay. HFF cells in 24-well cluster dishes were infected with approximately 100 p.f.u. of HCMV per cm^2 cell sheet using the procedures detailed above. Following virus adsorption, compounds dissolved in growth medium were added to duplicate wells in three to six selected concentrations. Following incubation at 37° C. for 7 to 10 days, cell sheets were fixed, stained with crystal violet and microscopic plaques enumerated as described above. Drug effects were calculated as a percentage of reduction in number of plaques in the presence of each drug concentration compared to the number observed in the absence of drug. Ganciclovir (DHPG) was used as a positive control in all experiments.
(§4) Data Analysis. Dose-response relationships were constructed by linearly regressing the percent inhibition of parameters derived in the preceding sections against log drug concentrations. Fifty-percent inhibitory (IC50) concentrations were calculated from the regression lines. Samples containing positive controls (acyclovir for HSV-1, ganciclovir for HCMV, and 2-acetylpyridine thiosemicarbazone for cytotoxicity) were used in all assays.

HCMV [3] = assay: HCMV yield reduction assay in HFF cells; assay type: cell-based, Human CMV (HCMV); settings: footnote says IC90
Procedure: as §3
The effect of compounds on the replication of HCMV also was measured using a yield reduction assay. HFF cells were planted as described above in 96-well cluster dishes, incubated overnight, medium removed and the cultures were inoculated with HCMV at a m.o.i. of 0.5 to 1 p.f.u. per cell as reported elsewhere. After virus adsorption, inoculum was replaced with 0.2 mL of fresh medium containing test compounds. The first row of 12 wells was left undisturbed and served as virus controls. Each well in the second row received an additional 0.1 mL of medium with test compound at three times the desired final concentration. The contents of the 12 wells were mixed by repeated pipetting and then serially diluted 1:3 along the remaining wells. In this manner, six compounds could be tested in duplicate on a single plate with concentrations from 100 μM to 0.14 μM. Plates were incubated at 37° C. for seven days, subjected to one cycle of freezing and thawing; aliquots from each of the eight wells of a given column were transferred to the first column of a fresh 96-well monolayer culture of HFF cells. Contents were mixed and serially diluted 1:3 across the remaining eleven columns of the secondary plate. Each column of the original primary plate was diluted across a separate plate in this manner. Cultures were incubated, plaques were enumerated, and titers calculated as described above.
as §4

HSV-1 = HSV-1 ELISA in BSC-1 cells; assay type: cell-based, herpes simplex 1 (HSV-1); settings: BSC-1 cells; ELISA
Procedure: as §3
(b) HSV-1. An enzyme-linked immunosorbent assay (ELISA) was employed to detect HSV-1. 96-well cluster dishes were planted with BSC-1 cells at 10,000 cells per well, in a total volume of 200 μL per well of MEM(E) plus 10% calf serum. After overnight incubation at 37° C., drug and HSV-1 was added at the rate of 100 PFU/well. ELISA plates were blocked with 200 μL per well of 10% calf serum and 0.05% tween in HBS. After incubation for 30 minutes, the blocking agent was rinsed two times with HBS-T. A 1:400 dilution of AP conjugated rabbit anti-HSV-1 antibody in HBS-F was added. Plates were sealed with adhesive sheet, and incubated on rocker for one hour at 37° C. Plates were developed in the dark with 100 μL per well of substrate solution containing p-nitrophenyl phosphate. Plates were read at […]. Drug effects were calculated as a percentage of the reduction in virus in the presence of each drug concentration compared to the titer obtained in the absence of drug. Acyclovir was used as a positive control in all experiments.
as §4

HFF cells = assay: Cytotoxicity in stationary HFF cells, microscopic inspection; assay type: cell-based, human
Procedure: as §2
(§5) Cytotoxicity assays. Two different assays were used to explore cytotoxicity of selected compounds as we have detailed previously. (i) Cytotoxicity produced in stationary HFF cells and in growing CEM cells was determined by microscopic inspection of cells used in plaque and RT assays which were not affected by the virus. Turk, S. R., et al., Antimicrob. Agents Chemother. 31:544-550 (1987). (ii) The effect of compounds during two population doublings of KB cells was determined by crystal violet staining and spectrophotometric quantitation of dye eluted from stained cells. Prichard, M. N., et al., Antimicrob. Agents Chemother. 35:1060-1065 (1991).
as §4

KB cells = assay: Cytotoxicity in KB cells, growth over two population doublings; assay type: cell-based
Procedure: as §2, §5, §4

CEM cells = assay: Cytotoxicity in growing CEM cells, microscopic inspection; assay type: cell-based
Procedure: as §2, §5, §4

HIV-1 = HIV-1 reverse transcriptase assay in infected CEM cells; assay type: cell-based, strain IIIB of HIV-1; settings: reverse transcriptase assay, CEM cells; low moi (footnote c of the 5th table); read-out: HIV-1, IC50
Procedure: (d) HIV-1. Reverse transcriptase (RT) was employed as a marker for HIV-1. This assay measured the presence of HIV in supernatants of CEM cells infected with strain IIIB of HIV-1 by the amount of RT activity. Cells were grown, infected, and incubated in the presence of seven concentrations (one-half log10 dilutions) beginning at 1 or 100 μM of compounds to be assayed. Procedures and the RT assay were performed as detailed previously. Kucera, L. S., et al., AIDS Res. Human Retroviruses 9:307-314 (1993); White, E. L., et al., Antiviral Res. 16:257-266 (1991).

[4] = Toxicity controls: uninfected mice given test compound; assay type: in vivo; settings: 5.6, 16.7 and 50 mg/kg i.p. once daily for five days
Procedure: as §1

Row | SMILES | efficacy against MCMV mortality compared with compound 1 (B=guanin-N^9-yl) [1] | IC50 (HCMV [2]) | IC90 (HCMV [3]) | IC50 (HSV-1) | IC50 (HFF cells) | IC50 (KB cells) | IC50 (CEM cells) | IC50 (HIV-1) | deaths in uninfected mice that received only drug [4] | IC50 (HFF cells; stationary HFF cells, visual, read-out: Cytotoxicity IC50 HFF (visual)) | IC50 (KB cells; KB cell growth, read-out: Cytotoxicity IC50 KB (growth)) | IC50 (CEM cells; growing CEM cells, visual, read-out: Cytotoxicity IC50 CEM (visual))
1 | Nc1nc(O)c2ncn(COC(CO)CO)c2n1 [ganciclovir, reference compound] | somewhat more effective |  |  |  |  |  |  |  |  |  |  | 
2 | Nc1nc(N)c2ncn(C=C3CC3CO)c2n1 (stereo not drawn) [1 (B = 2,6-diaminopurine), Example 9, syn-2,6-Diamino-N^9-(2-hydroxymethylcyclopropylidenemethyl)purine] |  | 15 µM | 18 µM | > 100 µM | > 100 µM | > 100 µM | > 100 µM |  |  |  |  | 
3 | Nc1nc2c(ncn2C=C2CC2CO)c(=O)[nH]1 (stereo not drawn) [1 (B = guanine), Example 8, syn-N^9-(2-hydroxymethylcyclopropylidenemethyl)guanine] |  | 2 µM | 1.8 µM |  | > 100 µM | > 100 µM | > 100 µM | 1.3 µM | No deaths were observed |  |  | 
4 | Nc1ccn(C=C2CC2CO)c(=O)n1 (stereo not drawn) [1 (B = cytosine), Example 12, syn-N^1-(2-Hydroxymethylcyclopropylidenemethyl)cytosine] |  | 28 µM | 16 µM | > 100 µM | > 100 µM | > 100 µM | > 100 µM |  |  |  |  | 
5 | Nc1nc(NC2CC2)c2ncn(C=C3CC3CO)c2n1 (stereo not drawn) [syn-2-Amino-6-cyclopropylamino-N^9-(2-hydroxymethylcyclopropylidenemethyl)purine] |  | 0.4 µM | 1 µM | 20 µM | > 100 µM | > 100 µM | > 100 µM |  |  |  |  | 
6 | Nc1nc(Cl)c2ncn(C=C3CC3CO)c2n1 (stereo not drawn) [syn-2-amino-6-chloro-N^9-(2-hydroxymethylcyclopropylidenemethyl)purine] |  | 5 µM | 0.8 µM | 40 µM | > 100 µM | > 100 µM |  |  |  |  |  | 
7 | COC(=O)[C@H](C)NP(=O)(OCC1CC1=Cn1cnc2c(N)ncnc21)Oc1ccccc1 (stereo partly drawn) [3 (B = adenine), Example 13, Methyl Phenylphosphoro-L-alaninate of syn-N^9-(2-Hydroxymethylcyclopropylidenemethyl)adenine] |  | 0.14 µM | 0.21 µM | 2.5 µM |  |  |  | < 0.14 µM |  | 2.5 µM | 0.5 µM | 1.1 µM
